According to paper PMC7129073 (Clinical Microbiology and Infection, 2015):
In brackets after ≈: the same amount, converted by molar mass. Like-named read-outs stand apart in the source and are kept apart here.

Key:
[1] = system: methicillin susceptible Staphylococcus aureus; experiment: NCCLS agar dilution MIC; type: cell-based; settings: n = 41
MDR-MRSA = experiment: MIC, MBC; type: cell-based, Staphylococcus aureus; settings: time kill, two strains
[2] = system: viridans group streptococci (VGS); experiment: MIC; type: cell-based
enterococci = experiment: Disk diffusion and E-test, faecal isolates of cancer patients; type: cell-based, Enterococcus; settings: 38 strains
CA-MRSA = experiment: MIC, MBC; type: cell-based, Staphylococcus aureus; settings: time kill, two strains
[3] = system: glycopeptide intermediate Staphylococcus species (GISS); experiment: VITEK II, screening plate and E test, blood isolates; type: cell-based, coagulase-negative Staphylococci
[4] = system: methicillin resistant Staphylococcus aureus; experiment: NCCLS agar dilution MIC; type: cell-based; settings: n = 53
[5] = system: group A beta-haemolytic streptococcal (GABHS) pharyngitis; experiment: Phase III trial, GABHS pharyngitis/tonsillitis; type: in vivo, human
Escherichia coli O157:H7 = experiment: Kirby-Bauer susceptibility; type: cell-based; settings: 30 strains, 1990–2003
Pseudomonas aeruginosa = experiment: MIC, strains from cystic fibrosis patients; settings: by MIC
H. influenzae (HI) = experiment: SENTRY Brazil, NCCLS broth microdilution; type: cell-based, Haemophilus influenzae
Acinetobacter = experiment: Disk diffusion; type: cell-based; settings: 37 isolates selected as resistant to beta-lactams
S. pneumoniae (SPN) = experiment: SENTRY Brazil, NCCLS broth microdilution; type: cell-based, Streptococcus pneumoniae
Salmonella spp. = experiment: Agar dilution susceptibility, gastroenteritis isolates Cuba; type: cell-based; settings: 34 strains, 2002
nontyphoidal Salmonella = experiment: Agar dilution, isolates from chickens 1998–2004; type: cell-based, Salmonella spp.
P. aeruginosa = experiment: Disk diffusion, urine isolates of BPH patients
MSSA = experiment: Agar dilution MIC; type: cell-based, Staphylococcus aureus
[6] = system: biofilms of S. aureus (SA204 and SA195) and S. epidermidis (ATCC35983 and ATCC35984); experiment: Antibiotic lock, in vitro biofilm on polyurethane film, viable counts; type: cell-based, Staphylococcus species; settings: any of the time intervals examined
Shigella spp. = experiment: Disk diffusion, stool isolates Tehran; type: cell-based; settings: 96 isolates
[7] = system: Salmonella serotype Enteritidis; experiment: Disk diffusion, food isolates Spain; type: cell-based; settings: n = 96
N.gonorrhoeae = experiment: microbe, parasite or virus in culture; type: cell-based; settings: Neisseria gonorrhoeae
[8] = system: Salmonella serotype Typhimurium; experiment: Disk diffusion, food isolates Spain; type: cell-based; settings: n = 53
[9] = system: Salmonella, other 49 serotypes; experiment: Disk diffusion, food isolates Spain; type: cell-based; settings: n = 115

Compound: teicoplanin
- MIC50 [1]: 1 µg/mL
- MIC90 [1]: 1 µg/mL
- MIC range [1]: 0.25 to 2 µg/mL
- Δ Log10 CFU/ml (MDR-MRSA): −3.82 Log10 CFU/ml
- tolerant isolates ([2]; 83 isolates, tolerance to VA and TP): 77.6%
- MIC50 ([2]; 107 strains, 1990–2003): 0.06 µg/mL
- MIC90 ([2]; 107 strains, 1990–2003): 0.12 µg/mL
- susceptibility of all isolates ([2]; NCCLS): All isolates were susceptible
- sensitivity of all isolated strains (enterococci): All the isolated strains were sensitive
- Δ Log10 CFU/ml (CA-MRSA): −1.86 Log10 CFU/ml
- MIC of resistant strains ([3]; 26 strains): 32 to 256 µg/mL
- MIC of intermediate sensitive strains ([3]; 47 strains): 16 µg/mL
- MIC50 [4]: 1 µg/mL
- MIC90 [4]: 2 µg/mL
- MIC range [4]: 0.5 to 8 µg/mL

Compound: CC[C@H]1OC(=O)[C@H](C)[C@@H](O[C@H]2C[C@@](C)(OC)[C@@H](O)[C@H](C)O2)[C@H](C)[C@@H](O[C@@H]2O[C@H](C)C[C@H](N(C)C)[C@H]2O)[C@](C)(O)C[C@@H](C)CN(C)[C@H](C)[C@@H](O)[C@]1(C)O [3-day azithromycin, azithromycin]
- bacteriologic eradication at TOC (Day 24–28) ([5]; BPP population, single 2.0 g dose vs 500 mg QD for 3 days): 81.4%
- clinical cure ([5]; TOC): 96.7%
- bacteriologic recurrence at long-term follow up (Day 38–45) ([5]; in vivo): 7.7%
- diarrhoea/loose stools ([5]; most frequent adverse event): 11%

Compound: NC[C@H]1O[C@H](O[C@H]2[C@H](O)[C@@H](O[C@H]3O[C@H](CO)[C@@H](O)[C@H](N)[C@H]3O)[C@H](N)C[C@@H]2N)[C@H](O)[C@@H](O)[C@@H]1O [kanamycin]
- resistant strains (Escherichia coli O157:H7): 3.3%

Compound: colistin methanesulfonate
- Susceptible isolates (Pseudomonas aeruginosa): 98%

Compound: COc1cc(Cc2cnc(N)nc2N)cc(OC)c1OC [trimethoprim]
- resistance (Escherichia coli; 1993, E.coli resistant to ampicillin): 28%
- resistance (Escherichia coli; 1993, E.coli sensitive to ampicillin): 3%
- resistance (Escherichia coli; 2003, E.coli resistant to ampicillin): 43%
- resistance (Escherichia coli; 2003, E.coli sensitive to ampicillin): 4%

Compound: O=C(N[C@H](CO)[C@H](O)c1ccc([N+](=O)[O-])cc1)C(Cl)Cl [chloramphenicol]
- % S (H. influenzae (HI); 1998): 96%
- % S (H. influenzae (HI); 1999): 99%
- % S (H. influenzae (HI); 2000): 97%
- % S (H. influenzae (HI); 2001): 95%
- % S (H. influenzae (HI); 2002): 93%
- % S (H. influenzae (HI); 2003): 96%
- resistant isolates (Acinetobacter): 100.0%
- % S (S. pneumoniae (SPN); 1998): 99%
- % S (S. pneumoniae (SPN); 1999): 98%
- % S (S. pneumoniae (SPN); 2000): 99%
- % S (S. pneumoniae (SPN); 2001): 100%
- % S (S. pneumoniae (SPN); 2002): 99%
- % S (S. pneumoniae (SPN); 2003): 100%
- resistance (Salmonella spp.): 41%
- resistance (nontyphoidal Salmonella; Belgian collection (caecal samples; Belgium, France, Netherlands)): 8%
- resistance (nontyphoidal Salmonella; Germany (carcass meat)): 4%
- resistant strains (Escherichia coli O157:H7): 6%

Compound: CC1(C)S[C@@H]2[C@H](NC(=O)[C@H](NC(=O)N3CCNC3=O)c3ccccc3)C(=O)N2[C@H]1C(=O)O [azlocillin]
- resistance (P. aeruginosa): 73.3%

Compound: Cc1nnc(SCC2=C(C(=O)O)N3C(=O)[C@@H](NC(=O)Cn4cnnn4)[C@H]3SC2)s1 [cefazolin]
- MIC50 (MSSA; Staphylococcus aureus, MSSA): < 0.5 µg/mL
- MIC90 (MSSA; Staphylococcus aureus, MSSA): < 1 µg/mL
- MIC range (MSSA; n = 200): 250 to 1000 µg/mL
- significant biofilm killing [6]: not achieved
- sensitive (Shigella spp.): 80%

Compound: CN[C@@H]1[C@H](O)[C@H](NC)[C@H]2O[C@@]3(O)C(=O)C[C@@H](C)O[C@H]3O[C@@H]2[C@H]1O [spectinomycin]
- resistance rate (NCCLS M100-S13) [7]: 99%
- MIC (N.gonorrhoeae): 16 µg/mL (≈ 48.1 µM)
- MIC (N.gonorrhoeae; strain 76mu6): 16 µg/mL (≈ 48.1 µM)
- MIC (N.gonorrhoeae; strain 76mu10): 8 µg/mL (≈ 24.1 µM)
- MIC (N.gonorrhoeae; strain 92mu6): 8 µg/mL (≈ 24.1 µM)
- MIC (N.gonorrhoeae; strain 92mu13): 4 µg/mL (≈ 12 µM)
- resistance (Salmonella spp.): 50%
- resistance rate (NCCLS M100-S13) [8]: 87%
- resistance rate (NCCLS M100-S13) [9]: 100%
